From publication PMC3462244 (2012)

Target: cannabinoid receptor subtype 2 (CB2) (Homo sapiens, UniProt P34972)
Assay: [3H]CP-55940 radioligand competition binding, CHO-CB2 cell membranes

Sequence of cannabinoid receptor subtype 2 (CB2) (P34972 whole entry): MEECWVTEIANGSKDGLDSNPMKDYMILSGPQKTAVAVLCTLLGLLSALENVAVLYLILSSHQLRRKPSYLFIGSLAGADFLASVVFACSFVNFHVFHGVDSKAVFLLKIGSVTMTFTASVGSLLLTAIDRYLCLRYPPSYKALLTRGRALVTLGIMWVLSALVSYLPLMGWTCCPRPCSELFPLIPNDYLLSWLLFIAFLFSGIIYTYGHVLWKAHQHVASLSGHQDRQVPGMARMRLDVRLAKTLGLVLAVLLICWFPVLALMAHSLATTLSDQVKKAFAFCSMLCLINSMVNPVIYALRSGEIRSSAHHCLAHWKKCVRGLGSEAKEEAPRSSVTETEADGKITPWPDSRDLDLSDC

| SMILES | Ki | Experimental pKi |
| --- | --- | --- |
| COC(=O)C1(C)CCCC2(C)c3cc(O)c(C(C)C)cc3CCC12 (stereo not shown) [compound 49888, NSC49888] | 6.7 nM | – |
| COc1ccc2c(c1)c1c(C)c3cnccc3c(C)c1n2CCCN1C(=O)c2ccccc2C1=O [compound 174122, NSC174122] | – | 5.59 pKi |
| COc1ccc2c(c1)CCC1=C2CC2C(=O)C1(C)CCC2(C)OC(C)=O (stereo not shown) [compound 76301, NSC76301] | – | 5.42 pKi |
| CC(=O)OC1CC2C3(C)CCC4C(C)(C)CCCC4(C)C3CC(O)C2(C)C2C1=COC2OC(C)=O (stereo not shown) [compound 369049, NSC369049] | – | 5.51 pKi |
